Data reported in US11497212B2, “Substituted thiophenyl uracils, salts thereof and the use thereof as herbicidal agents” (Syngenta Crop Protection AG, priority 2017, dated 2022).

Experiments:
Assay type in all cases: in vivo
[1] = system: Triticum aestivum; assay: Crop compatibility post-emergence (greenhouse pot trial)
Method: (§1) Seeds of mono- and dicotyledonous weed plants and crop plants are laid out in sandy loam soil in plastic or wood-fiber pots, covered with earth and grown under controlled growth conditions in a greenhouse. 2 to 3 weeks after sowing, the trial plants are treated at the one-leaf stage. The compounds of the invention formulated in the form of wettable powders (WP) or emulsion concentrates (EC) were then sprayed onto the green parts of the plant as an aqueous suspension or emulsion with addition of 0.5% additive at a water application rate equivalent to 600 L/ha. After the trial plants had stood for about 3 weeks in the greenhouse, under optimal growth conditions, the effect of the preparations was scored visually by comparison with untreated controls. For example, 100% efficacy=plants have died, 0% efficacy=like control plants.
(§2) Crop plant compatibilities were also scored correspondingly.
(§3) The effects observed are reported here on selected crop plants by comparison with the untreated controls (values in %).

[2] = system: Oryza sativa; assay: as above
Method: as §1, §2, §3

[3] = system: Stellaria media; assay: Herbicidal action post-emergence (greenhouse pot trial); details: application rate 20 g/ha, scored visually after about 3 weeks vs untreated controls
Method: as §1, with “plants. Tables A1 to A15 below show the efficacies of selected compounds of the general formula (I) according to tables I.1 to I.60 on various harmful plants and an application rate corresponding to 80 g/ha or lower that were obtained by the aforementioned trial method.” for “plants.”

[4] = system: Viola tricolor; assay: as above; details: application rate 20 g/ha
Method: as §1, with “plants. Tables A1 to A15 below show the efficacies of selected compounds of the general formula (I) according to tables I.1 to I.60 on various harmful plants and an application rate corresponding to 80 g/ha or lower that were obtained by the aforementioned trial method.” for “plants.”

[5] = system: Polygonum convolvulus; assay: as above; details: application rate 20 g/ha, scored visually after about 3 weeks vs untreated controls
Method: as §1, with “plants. Tables A1 to A15 below show the efficacies of selected compounds of the general formula (I) according to tables I.1 to I.60 on various harmful plants and an application rate corresponding to 80 g/ha or lower that were obtained by the aforementioned trial method.” for “plants.”

[6] = system: Matricaria inodora; assay: as above; details: application rate 20 g/ha, scored visually after about 3 weeks vs untreated controls
Method: as §1, with “plants. Tables A1 to A15 below show the efficacies of selected compounds of the general formula (I) according to tables I.1 to I.60 on various harmful plants and an application rate corresponding to 80 g/ha or lower that were obtained by the aforementioned trial method.” for “plants.”

[7] = system: Amaranthus retroflexus; assay: as above; details: application rate 20 g/ha, scored visually after about 3 weeks vs untreated controls
Method: as §1, with “plants. Tables A1 to A15 below show the efficacies of selected compounds of the general formula (I) according to tables I.1 to I.60 on various harmful plants and an application rate corresponding to 80 g/ha or lower that were obtained by the aforementioned trial method.” for “plants.”

[8] = system: Pharbitis purpurea; assay: as above; details: application rate 20 g/ha
Method: as §1, with “plants. Tables A1 to A15 below show the efficacies of selected compounds of the general formula (I) according to tables I.1 to I.60 on various harmful plants and an application rate corresponding to 80 g/ha or lower that were obtained by the aforementioned trial method.” for “plants.”

[9] = system: Abutilon theophrasti; assay: as above; details: application rate 20 g/ha, scored visually after about 3 weeks vs untreated controls
Method: as §1, with “plants. Tables A1 to A15 below show the efficacies of selected compounds of the general formula (I) according to tables I.1 to I.60 on various harmful plants and an application rate corresponding to 80 g/ha or lower that were obtained by the aforementioned trial method.” for “plants.”

[10] = system: Veronica persica; assay: as above; details: application rate 20 g/ha
Method: as §1, with “plants. Tables A1 to A15 below show the efficacies of selected compounds of the general formula (I) according to tables I.1 to I.60 on various harmful plants and an application rate corresponding to 80 g/ha or lower that were obtained by the aforementioned trial method.” for “plants.”

[11] = system: Echinochloa crus-galli; assay: as above; details: application rate 20 g/ha, scored visually after about 3 weeks vs untreated controls
Method: as §1, with “plants. Tables A1 to A15 below show the efficacies of selected compounds of the general formula (I) according to tables I.1 to I.60 on various harmful plants and an application rate corresponding to 80 g/ha or lower that were obtained by the aforementioned trial method.” for “plants.”

[12] = system: Digitaria sanguinalis; assay: as above; details: application rate 20 g/ha
Method: as §1, with “plants. Tables A1 to A15 below show the efficacies of selected compounds of the general formula (I) according to tables I.1 to I.60 on various harmful plants and an application rate corresponding to 80 g/ha or lower that were obtained by the aforementioned trial method.” for “plants.”

[13] = system: Setaria viridis; assay: as above; details: application rate 20 g/ha, scored visually after about 3 weeks vs untreated controls
Method: as §1, with “plants. Tables A1 to A15 below show the efficacies of selected compounds of the general formula (I) according to tables I.1 to I.60 on various harmful plants and an application rate corresponding to 80 g/ha or lower that were obtained by the aforementioned trial method.” for “plants.”

Triticum aestivum (Efficacy in %) ([1]; application rate 20 g/ha) [%] | Oryza sativa (Efficacy in %) ([2]; application rate 20 g/ha) [%] | Triticum aestivum (Efficacy in %) ([1]; application rate 5 g/ha) [%] | Oryza sativa (Efficacy in %) ([2]; application rate 5 g/ha) [%] | Compound | Stellaria media (Efficacy in %) [3] [%] | Viola tricolor (Efficacy in %) [4] [%] | Polygonum convolvulus (Efficacy in %) [5] [%] | Matricaria inodora (Efficacy in %) [6] [%] | Amaranthus retroflexus (Efficacy in %) [7] [%] | Pharbitis purpurea (Efficacy in %) [8] [%] | Abutilon theophrasti (Efficacy in %) [9] [%] | Veronica persica (Efficacy in %) [10] [%] | Echinochloa crus-galli (Efficacy in %) [11] [%] | Digitaria sanguinalis (Efficacy in %) [12] [%] | Setaria viridis (Efficacy in %) [13] [%]
20 | 0 | – | – | CC(Sc1cc(-n2c(=O)cc(C(F)(F)F)n(C)c2=O)c(F)cc1Cl)C(=O)NCCCOCc1ccccc1 (stereo not shown) [I.1-180] | 90 | 100 | 100 | 100 | 100 | 100 | 100 | 100 | – | – | –
– | – | 20 | – | Cn1c(C(F)(F)F)cc(=O)n(-c2cc(SCC(C)(C)C(=O)OCC3CCCCO3)c(Cl)cc2F)c1=O (stereo not shown) [I.48-91] | 100 | 100 | 100 | 100 | 100 | 100 | 100 | 100 | 100 | 100 | –
– | 10 | – | – | CCC(Sc1cc(-n2c(=O)cc(C(F)(F)F)n(C)c2=O)c(F)cc1Cl)C(=O)OCC1COC(C)C1 (stereo not shown) [I.2-73] | 100 | 100 | 100 | 100 | 100 | – | 100 | 100 | – | – | 90
– | – | 0 | – | Cn1c(C(F)(F)F)cc(=O)n(-c2cc(SCC(C)(C)C(=O)OCC3CCSC3)c(Cl)cc2F)c1=O (stereo not shown) [I.48-82, Tetrahydrothiophen-3-ylmethyl 3-({2-chloro-4-fluoro-5-[3-methyl-2,6-dioxo-4-(trifluoromethyl)-3,6-dihydropyrimidin-1(2H)-yl]phenyl}sulfanyl)-2,2-dimethylpropanoate] | – | – | 100 | – | 100 | – | 100 | – | – | – | –
20 | 10 | – | – | CC(CC(=O)OCC1CCCO1)Sc1cc(-n2c(=O)cc(C(F)(F)F)n(C)c2=O)c(F)cc1Cl (stereo not shown) [I.49-71] | 100 | 100 | 100 | 100 | 100 | 100 | 100 | 100 | – | – | –
– | 10 | – | – | CC(CC(=O)OCC1CCOC1)Sc1cc(-n2c(=O)cc(C(F)(F)F)n(C)c2=O)c(F)cc1Cl (stereo not shown) [I.49-72] | – | 100 | – | 90 | 100 | – | 100 | 100 | – | – | –
0 | 0 | – | – | CC1CC(COC(=O)C(C)(C)CSc2cc(-n3c(=O)cc(C(F)(F)F)n(C)c3=O)c(F)cc2Cl)CO1 (stereo not shown) [I.48-73] | 100 | 100 | 80 | 80 | 100 | 100 | 100 | 100 | – | – | –
20 | 10 | – | – | Cc1c(C(F)(F)F)n(C)c(=O)n(-c2cc(SC(CC(C)C)C(=O)NCC3CCCO3)c(Cl)cc2F)c1=O (stereo not shown) [I.14-221] | – | 100 | 80 | 80 | 100 | 100 | 90 | 100 | – | – | –
– | – | – | 10 | CC(Sc1cc(-n2c(=O)cc(C(F)(F)F)n(C)c2=O)c(F)cc1Cl)C(=O)NC1CCCOC1 (stereo not shown) [I.1-276] | 100 | 100 | 100 | 100 | 100 | – | 100 | 100 | – | – | 100
– | 10 | – | – | CC(CC(=O)NCC1CCCO1)Sc1cc(-n2c(=O)cc(C(F)(F)F)n(C)c2=O)c(F)cc1Cl (stereo not shown) [I.49-221] | 90 | – | 100 | 90 | 100 | 100 | 100 | 100 | – | – | –
– | 10 | – | – | CC(Sc1cc(-n2c(=O)cc(C(F)(F)F)n(C)c2=O)c(F)cc1Cl)C(=O)NCC1COCCO1 (stereo not shown) [I.1-331] | 80 | 100 | – | 90 | 100 | – | 100 | 100 | – | – | –
20 | – | – | – | Cn1c(C(F)(F)F)cc(=O)n(-c2cc(SCC(C)(C)C(=O)OCC3CCCS3)c(Cl)cc2F)c1=O (stereo not shown) [I.48-81] | 100 | 100 | 100 | 100 | 100 | 100 | 100 | 100 | 90 | 100 | –
20 | – | – | – | CCC(C)C(Sc1cc(-n2c(=O)cc(C(F)(F)F)n(C)c2=O)c(F)cc1Cl)C(=O)OCC1CCOC1 (stereo not shown) [I.5-72] | – | 100 | 90 | 90 | 100 | 100 | 100 | 100 | 90 | 100 | 80
10 | – | – | – | CCC(C)C(Sc1cc(-n2c(=O)cc(C(F)(F)F)n(C)c2=O)c(F)cc1Cl)C(=O)OCC1CCCCO1 (stereo not shown) [I.5-91] | – | 100 | 90 | 90 | 100 | 100 | 100 | 100 | 80 | – | 90
0 | 0 | – | – | Cc1c(C(F)(F)F)n(C)c(=O)n(-c2cc(SCC(C)(C)C(=O)NCC3CCCCO3)c(Cl)cc2F)c1=O (stereo not shown) [I.54-241] | 80 | – | 100 | – | 100 | – | 100 | 100 | – | 80 | 100
– | 10 | 20 | – | CC(Sc1cc(-n2c(=O)cc(C(F)(F)F)n(C)c2=O)c(F)cc1Cl)C(=O)NCC1CCCCO1 (stereo not shown) [I.1-241] | 100 | 100 | 100 | 100 | 100 | – | 100 | 100 | – | 100 | 100
